Laboratory results taken from the SangsterLogP compilation.

Structure (SMILES)	logP
CC(=O)OC1N=C(c2ccccc2)c2cc(Cl)ccc2N(CCO)C1=O (stereo not drawn)	2.45
COc1cc(C(=O)OC2N=C(c3ccccc3)c3cc(Cl)ccc3NC2=O)cc(OC)c1OC (stereo not drawn)	3.75
O=C1Nc2ccc(Cl)cc2C(c2ccccc2F)=NC1O (stereo not drawn)	1.81
CN1C(=O)C(O)N=C(c2ccccc2Cl)c2cc(Cl)ccc21 (stereo not drawn)	2.5
CCN(CC)CCN1C(=O)C(O)N=C(c2ccccc2F)c2cc(Cl)ccc21 (stereo not drawn)	1.89
CNC(=O)N1C(=O)CN=C(c2ccccc2)c2cc([N+](=O)[O-])ccc21	1.76
O=C1C(O)N=C(c2ccccc2Cl)c2cc(Cl)ccc2N1CCO (stereo not drawn)	2.16
O=C1C(O)N=C(c2ccccc2)c2cc([N+](=O)[O-])ccc2N1CCO (stereo not drawn)	0.55
O=C1C[N+]([O-])=C(c2ccccc2)c2cc(Cl)ccc2N1CCO	0.82
O=C1C(O)N=C(c2ccccc2)c2cc(Cl)ccc2N1CCO (stereo not drawn)	1.53
CCCC(CCC)C(=O)OC1N=C(c2ccccc2)c2cc(Cl)ccc2NC1=O (stereo not drawn)	4.94
CCOC1N=C(c2ccccc2)c2cc(Cl)ccc2N(CCCl)C1=O (stereo not drawn)	3.53
O=C1CN=C(c2ccccc2)c2cc(Cl)ccc2N1CC(F)(F)F	3.97
O=C1C(O)N=C(c2ccccc2)c2cc(Cl)ccc2N1CCCO (stereo not drawn)	1.68
CCN(CC)CCN1C(=O)C(O)N=C(c2ccccc2Cl)c2cc(Cl)ccc21 (stereo not drawn)	1.76
O=C(O)CCC(=O)OC1N=C(c2ccccc2)c2cc(Cl)ccc2NC1=O (stereo not drawn)	1.5
O=C1C(O)N=C(c2ccccc2F)c2cc(Cl)ccc2N1CCO (stereo not drawn)	1.52
CC(=O)OCCCN1C(=O)C(OC(C)=O)N=C(c2ccccc2)c2cc(Cl)ccc21 (stereo not drawn)	3.08
O=C(O)CCC(=O)OCCN1C(=O)C[N+]([O-])=C(c2ccccc2)c2cc(Cl)ccc21	0.36
CN1C(=O)C(O)N=C(c2ccccc2F)c2cc(Cl)ccc21 (stereo not drawn)	2.09
CCOC1N=C(c2ccccc2)c2cc(Cl)ccc2N(CCO)C1=O (stereo not drawn)	2.44
CC(=O)OCCN1C(=O)C(OC(C)=O)N=C(c2ccccc2)c2cc(Cl)ccc21 (stereo not drawn)	2.74
CCN(CC)CCN1C(=O)C(O)N=C(c2ccccc2)c2cc(Cl)ccc21 (stereo not drawn)	1.7
